Assay results published in publication PMC8924334, “Synthesis of [^11C]carbonyl-labeled cyclohexyl (5-(2-acetamidobenzo[d]thiazol-6-yl)-2-methylpyridin-3-yl)carbamate ([^11C-carbonyl]PK68) as a potential PET tracer for receptor-interacting protein 1 kinase” (EJNMMI Radiopharmacy and Chemistry, 2022).

Test: Ex vivo biodistribution study
Type: in vivo, mice
Settings: mean ± SD, n = 3
Description: Each mouse (8 weeks old, 37.9 ± 1.0 g) was injected with a bolus of [^11C]PK68 (2.7 MBq, 0.1 mL) via its tail vein. Three mice were sacrificed by cervical dislocation at each experimental time-point (1, 5, 15, 30, and 60 min) after the injection. The blood (heart contents), heart wall, lung, liver, pancreas, spleen, kidneys, adrenals, stomach (including contents), small intestine (including contents), large intestines (including contents), testes, muscles, and whole brain were removed quickly and weighed. The radioactivity in these tissues was measured with an autogamma scintillation counter (2480 Wizard^2) and expressed as %ID/g. All radioactivity measurements were corrected for decay.

Cc1ncc(-c2ccc3nc(N[11C](C)=O)sc3c2)cc1NC(=O)OC1CCCCC1 [[^11C]PK68, Cyclohexyl (5-(2-[^11C-carbonyl]acetamidobenzo[d]thiazol-6-yl)-2-methylpyridin-3-yl)carbamate]
radioactivity in adrenals (1 min after injection): 6.2 ± 2.7 %ID/g
radioactivity in blood (1 min after injection): 2.4 ± 0.3 %ID/g
radioactivity in brain (1 min after injection): 0.6 ± 0.0 %ID/g
radioactivity in heart (1 min after injection): 7.6 ± 0.3 %ID/g
radioactivity in large intestine (including contents) (1 min after injection): 0.7 ± 0.1 %ID/g
radioactivity in liver (1 min after injection): 8.0 ± 0.8 %ID/g
radioactivity in lung (1 min after injection): 5.2 ± 0.2 %ID/g
radioactivity in muscle (1 min after injection): 1.9 ± 0.3 %ID/g
radioactivity in pancreas (1 min after injection): 3.4 ± 0.2 %ID/g
radioactivity in small intestine (including contents) (1 min after injection): 1.8 ± 0.1 %ID/g
radioactivity in spleen (1 min after injection): 1.5 ± 0.2 %ID/g
radioactivity in stomach (including contents) (1 min after injection): 1.2 ± 0.2 %ID/g
radioactivity in testis (1 min after injection): 0.3 ± 0.1 %ID/g
radioactivity in adrenals (5 min after injection): 4.0 ± 0.5 %ID/g
radioactivity in blood (5 min after injection): 1.3 ± 0.2 %ID/g
radioactivity in brain (5 min after injection): 0.4 ± 0.0 %ID/g
radioactivity in heart (5 min after injection): 2.8 ± 0.3 %ID/g
radioactivity in kidney (5 min after injection): 9.9 ± 0.4 %ID/g
radioactivity in large intestine (including contents) (5 min after injection): 0.9 ± 0.1 %ID/g
radioactivity in liver (5 min after injection): 17.2 ± 0.7 %ID/g
radioactivity in lung (5 min after injection): 2.6 ± 0.2 %ID/g
radioactivity in muscle (5 min after injection): 1.1 ± 0.1 %ID/g
radioactivity in pancreas (5 min after injection): 2.7 ± 0.3 %ID/g
radioactivity in small intestine (including contents) (5 min after injection): 3.3 ± 0.1 %ID/g
radioactivity in spleen (5 min after injection): 1.6 ± 0.1 %ID/g
radioactivity in stomach (including contents) (5 min after injection): 2.0 ± 0.1 %ID/g
radioactivity in testis (5 min after injection): 0.3 ± 0.0 %ID/g
radioactivity in adrenals (15 min after injection): 3.3 ± 0.5 %ID/g
radioactivity in blood (15 min after injection): 1.1 ± 0.1 %ID/g
radioactivity in brain (15 min after injection): 0.3 ± 0.0 %ID/g
radioactivity in heart (15 min after injection): 2.1 ± 0.3 %ID/g
radioactivity in kidney (15 min after injection): 7.7 ± 1.0 %ID/g
radioactivity in large intestine (including contents) (15 min after injection): 1.4 ± 0.3 %ID/g
radioactivity in liver (15 min after injection): 15.6 ± 0.8 %ID/g
radioactivity in lung (15 min after injection): 2.1 ± 0.3 %ID/g
radioactivity in muscle (15 min after injection): 0.8 ± 0.1 %ID/g
radioactivity in pancreas (15 min after injection): 2.1 ± 0.3 %ID/g
radioactivity in small intestine (including contents) (15 min after injection): 9.8 ± 3.1 %ID/g
radioactivity in spleen (15 min after injection): 1.4 ± 0.2 %ID/g
radioactivity in stomach (including contents) (15 min after injection): 4.0 ± 1.2 %ID/g
radioactivity in testis (15 min after injection): 0.3 ± 0.0 %ID/g
radioactivity in adrenals (30 min after injection): 2.1 ± 0.8 %ID/g
radioactivity in blood (30 min after injection): 0.8 ± 0.1 %ID/g
radioactivity in brain (30 min after injection): 0.2 ± 0.0 %ID/g
radioactivity in heart (30 min after injection): 1.3 ± 0.1 %ID/g
radioactivity in kidney (30 min after injection): 6.2 ± 0.6 %ID/g
radioactivity in large intestine (including contents) (30 min after injection): 1.7 ± 0.4 %ID/g
radioactivity in liver (30 min after injection): 10.7 ± 0.3 %ID/g
radioactivity in lung (30 min after injection): 1.5 ± 0.2 %ID/g
radioactivity in muscle (30 min after injection): 0.6 ± 0.1 %ID/g
radioactivity in pancreas (30 min after injection): 1.4 ± 0.1 %ID/g
radioactivity in small intestine (including contents) (30 min after injection): 16.7 ± 1.4 %ID/g
radioactivity in spleen (30 min after injection): 0.9 ± 0.0 %ID/g
radioactivity in stomach (including contents) (30 min after injection): 4.7 ± 1.0 %ID/g
radioactivity in testis (30 min after injection): 0.3 ± 0.0 %ID/g
radioactivity in adrenals (60 min after injection): 1.2 ± 0.1 %ID/g
radioactivity in blood (60 min after injection): 0.5 ± 0.1 %ID/g
radioactivity in brain (60 min after injection): 0.1 ± 0.0 %ID/g
radioactivity in heart (60 min after injection): 0.7 ± 0.1 %ID/g
radioactivity in kidney (60 min after injection): 3.2 ± 0.1 %ID/g
radioactivity in large intestine (including contents) (60 min after injection): 2.6 ± 0.6 %ID/g
radioactivity in liver (60 min after injection): 6.0 ± 0.2 %ID/g
radioactivity in lung (60 min after injection): 0.8 ± 0.1 %ID/g
radioactivity in muscle (60 min after injection): 0.3 ± 0.0 %ID/g
radioactivity in pancreas (60 min after injection): 0.8 ± 0.1 %ID/g
radioactivity in small intestine (including contents) (60 min after injection): 27.7 ± 3.0 %ID/g
radioactivity in spleen (60 min after injection): 0.5 ± 0.1 %ID/g
radioactivity in stomach (including contents) (60 min after injection): 7.2 ± 2.4 %ID/g
radioactivity in testis (60 min after injection): 0.2 ± 0.0 %ID/g
